From ChEMBL document CHEMBL5614439, “Targeting Thyroid-Stimulating Hormone Receptor: A Perspective on Small-Molecule Modulators and Their Therapeutic Potential” (J Med Chem, 2024)

Assays:
Thyrotropin receptor [1] = molecular target: T1, Thyrotropin receptor (Homo sapiens, UniProt P16473); assay: Agonist activity at TSHR (unknown origin); format: functional
[2] = molecular target: Lutropin-choriogonadotropic hormone receptor (Homo sapiens, UniProt P22888); assay: Agonist activity at LHCGR (unknown origin); format: functional
Lutropin-choriogonadotropic hormone receptor, sequence (P22888 whole entry): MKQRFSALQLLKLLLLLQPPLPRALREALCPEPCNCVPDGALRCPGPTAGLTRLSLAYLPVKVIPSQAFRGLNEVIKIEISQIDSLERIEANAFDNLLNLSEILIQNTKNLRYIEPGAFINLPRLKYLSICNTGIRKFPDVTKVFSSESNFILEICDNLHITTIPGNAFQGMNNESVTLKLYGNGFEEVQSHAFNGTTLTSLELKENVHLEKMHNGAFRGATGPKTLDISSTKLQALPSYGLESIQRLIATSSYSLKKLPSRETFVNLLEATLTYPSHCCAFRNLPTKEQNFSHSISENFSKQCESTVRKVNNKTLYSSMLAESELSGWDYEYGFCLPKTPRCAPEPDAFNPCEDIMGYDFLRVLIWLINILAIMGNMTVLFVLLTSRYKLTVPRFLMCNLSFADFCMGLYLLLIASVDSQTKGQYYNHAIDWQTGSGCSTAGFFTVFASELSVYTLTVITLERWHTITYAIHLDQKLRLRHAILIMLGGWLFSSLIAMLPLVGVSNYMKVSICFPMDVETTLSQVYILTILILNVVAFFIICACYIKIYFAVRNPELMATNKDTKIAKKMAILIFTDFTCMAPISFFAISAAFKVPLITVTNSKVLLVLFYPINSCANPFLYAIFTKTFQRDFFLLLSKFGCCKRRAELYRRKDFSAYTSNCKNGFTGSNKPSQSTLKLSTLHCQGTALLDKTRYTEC

[3] = Inhibition of b-TSH-induced C-terminal GFP-tagged mouse TSHR activation expressed in HEK293 cells by cAMP assay; format: cell-based
Thyrotropin receptor [4] = molecular target: T1, Thyrotropin receptor; assay: Agonist activity at TSHR (unknown origin) stably expressed in HEK293 cells assessed as intracellular cAMP accumulation incubated for 1 hr; format: functional, cell-based
Thyrotropin receptor [5] = molecular target: T1, Thyrotropin receptor; assay: Agonist activity at N-terminal HA-tagged TSHR (unknown origin) assessed as intracellular calcium level measured for 60 mins by HTS assay; format: functional, cell-based
Thyrotropin receptor [6] = molecular target: T1, Thyrotropin receptor; assay: Agonist activity at N-terminal HA-tagged TSHR (unknown origin) stably expressed in CHO cells assessed as change in intracellular […] level incubated for 60 mins by CRE-driven luciferase reporter based microplate reader; format: functional, cell-based
[7] = molecular target: T2, Follicle-stimulating hormone receptor (Homo sapiens, UniProt P23945); assay: Agonist activity at FSHR (unknown origin); format: functional
T2 sequence (P23945 whole entry): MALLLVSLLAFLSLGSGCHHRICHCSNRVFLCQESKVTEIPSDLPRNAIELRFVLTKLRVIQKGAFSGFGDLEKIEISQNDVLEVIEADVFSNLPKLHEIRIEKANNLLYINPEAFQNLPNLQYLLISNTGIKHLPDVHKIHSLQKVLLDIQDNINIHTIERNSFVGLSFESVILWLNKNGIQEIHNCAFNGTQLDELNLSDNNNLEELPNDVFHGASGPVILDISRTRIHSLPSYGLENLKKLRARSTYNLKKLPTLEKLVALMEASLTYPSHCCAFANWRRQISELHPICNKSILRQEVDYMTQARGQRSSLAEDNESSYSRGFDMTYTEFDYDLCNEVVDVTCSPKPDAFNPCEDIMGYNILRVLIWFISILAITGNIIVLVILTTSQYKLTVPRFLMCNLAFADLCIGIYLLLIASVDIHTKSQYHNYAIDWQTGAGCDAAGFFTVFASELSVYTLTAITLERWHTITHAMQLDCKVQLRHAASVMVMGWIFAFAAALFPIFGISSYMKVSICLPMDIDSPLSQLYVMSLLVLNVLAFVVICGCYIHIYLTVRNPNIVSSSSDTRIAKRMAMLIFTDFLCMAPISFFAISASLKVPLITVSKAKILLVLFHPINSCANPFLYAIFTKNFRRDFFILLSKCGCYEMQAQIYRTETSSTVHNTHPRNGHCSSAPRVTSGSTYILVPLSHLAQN

Thyrotropin receptor [8] = molecular target: T1, Thyrotropin receptor; assay: Inverse agonist activity at TSH receptor (unknown origin) stably expressed in HEK293 cells assessed as reduction in TSH-induced cAMP production incubated for 40 mins by ELISA analysis; format: functional, cell-based
Thyrotropin receptor [9] = molecular target: T1, Thyrotropin receptor; assay: Agonist activity at TSHR (unknown origin) expressed in CHO cells; format: functional, cell-based

T1 sequence (P16473 whole entry): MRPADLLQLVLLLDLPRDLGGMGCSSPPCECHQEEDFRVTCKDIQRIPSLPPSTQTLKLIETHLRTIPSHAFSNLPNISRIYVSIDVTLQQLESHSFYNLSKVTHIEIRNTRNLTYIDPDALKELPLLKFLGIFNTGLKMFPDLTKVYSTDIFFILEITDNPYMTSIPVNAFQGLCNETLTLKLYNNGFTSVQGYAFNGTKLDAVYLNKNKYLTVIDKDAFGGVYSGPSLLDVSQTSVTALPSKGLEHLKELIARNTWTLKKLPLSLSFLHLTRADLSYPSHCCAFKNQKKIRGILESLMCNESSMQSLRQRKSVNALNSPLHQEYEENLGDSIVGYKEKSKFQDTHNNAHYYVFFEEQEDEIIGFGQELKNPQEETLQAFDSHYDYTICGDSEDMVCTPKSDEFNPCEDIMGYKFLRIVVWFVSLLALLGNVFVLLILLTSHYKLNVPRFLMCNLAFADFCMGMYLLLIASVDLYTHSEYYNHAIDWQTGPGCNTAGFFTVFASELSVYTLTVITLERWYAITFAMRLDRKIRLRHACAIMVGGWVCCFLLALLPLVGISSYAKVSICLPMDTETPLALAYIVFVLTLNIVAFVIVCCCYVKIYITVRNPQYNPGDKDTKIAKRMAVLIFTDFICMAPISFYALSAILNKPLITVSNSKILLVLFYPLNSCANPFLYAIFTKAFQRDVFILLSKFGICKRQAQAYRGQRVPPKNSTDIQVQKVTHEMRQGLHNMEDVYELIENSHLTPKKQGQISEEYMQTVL

CC(c1ccccc1)c1nc(N2CCNCC2)nc2ccccc12 (stereo unspecified)
EC50 (Thyrotropin receptor [1]): 11.6 nM

COc1cccc(-c2nc(SC)nc3sc(C(=O)NC(C)(C)C)c(N)c23)c1
EC50 [2]: 350 nM

O=C1[C@@H]2[C@H]3C[C@H]([C@@H]4Sc5[nH]c(=O)sc5[C@@H](c5ccccc5)[C@H]34)[C@@H]2C(=O)N1c1ccccc1
IC50 [3]: 40000 nM

COc1ccc(C2Nc3cccc(O)c3C(=O)N2Cc2ccccc2)cc1COc1ccc(NC(C)=O)cc1 (stereo unspecified)
EC50 (Thyrotropin receptor [4]): 40 nM

CNc1nc(-c2c(-c3ccccc3)[nH]c3ccccc23)cs1
EC50 (Thyrotropin receptor [5]): 12300 nM

CC(C)N(C(=O)c1cc(-c2ccccc2)nc2ccccc12)C(C)C
EC50 [2]: > 10000 nM
EC50 (Thyrotropin receptor [6]): 130 nM

COc1ccc(C2Nc3ccccc3C(=O)N2Cc2cccnc2)cc1COc1c(C)cccc1C (stereo unspecified)
EC50 [2]: > 30000 nM
IC50 [7]: > 30000 nM
IC50 (Thyrotropin receptor [8]): 3500 nM

COC/C=C/c1ccc(-c2nc(SC)nc3sc(C(=O)NC(C)(C)C)c(N)c23)cc1
EC50 (Thyrotropin receptor [9]): 4.2 nM

COc1ccc(C2Nc3ccccc3C(=O)N2Cc2ccco2)cc1COc1ccc(NC(C)=O)cc1 (stereo unspecified)
EC50 (Thyrotropin receptor [4]): 600 nM

CCCc1ccc(-c2cc(C(=O)NCc3ccncc3)c3ccccc3n2)cc1
EC50 (Thyrotropin receptor [9]): 8.3 nM
EC50 (Thyrotropin receptor [1]): 8.3 nM

COc1ccc(C2Nc3ccccc3C(=O)N2Cc2ccco2)cc1COc1c(C)cccc1C (stereo unspecified)
EC50 [2]: 480 nM
IC50 [7]: 4600 nM

COc1ccc(C2Nc3ccccc3C(=O)N2Cc2ccco2)cc1COc1c(C)cc(NC(C)=O)cc1C (stereo unspecified)
EC50 [2]: > 30000 nM
IC50 [7]: > 30000 nM
IC50 (Thyrotropin receptor [8]): 2300 nM

CC1=C(C(=O)OCc2ccccc2)C(c2ccc(C(F)(F)F)cc2)NC(=O)N1 (stereo unspecified)
EC50 [2]: > 10000 nM
EC50 (Thyrotropin receptor [6]): 540 nM
